From PubChem BioAssay AID179 (DTP/NCI, 2004) come the findings set out here.

The test system of this assay is CEM cells HIV-1 protection, formazan growth assay. In words: NCI AIDS Antiviral Assay. Conditions: for IC50: measured here: growth of uninfected CEM cells. In short, it runs like this:
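Category rules: moderately active means at least 50% protection on retest, and confirmed active means 100% protection reproducibly. The underlying data came from a formazan growth assay in HIV-1-infected CEM cells.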

The source made the active and inactive calls.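 The calls were made as follows: active = compounds giving half or more protection of infected cells from virus-caused growth loss, again on retest; inactive = the rest.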

Consider `COc1ccc(NC(=O)/N=C2\CN(C(=O)c3c(F)cccc3F)C(=O)N2c2ccc(OC)cc2)cc1`, for which the EC50 was greater than 200 µM and the IC50 is 129 µM. The like results for `CN1N=C(c2ccncc2)OC1c1cccc(F)c1` (stereo unspecified) were, in that order, greater than 200 µM and 79.4 µM.

With `O=S1C=C(C2=COCCC2)OC1` (stereo unspecified), the EC50 is greater than 195 µM and the IC50 was greater than 195 µM. On to `OC12CCC3(OC4CCCCO4)c4ccccc4C3C1c1ccccc12` (stereo unspecified), for which the EC50 was greater than 200 µM and the IC50 turned out to be 89.1 µM. `CCCNC(=O)N(CCC)S(=O)(=O)c1ccc(Cl)cc1`: the result was inactive. Take `Cn1c(=O)n2c(=O)n(C)c(=O)n2c1=O`: the EC50 was greater than 200 µM and the IC50 was greater than 200 µM.

With `CC(C)C1COC(c2cccc(C3=N[C@@H](C(C)C)CO3)n2)=N1` (stereo partly specified), the EC50 is greater than 24 µM and the IC50 is greater than 24 µM. Turning to `COC1(C)C(=O)N2C1N(C(C)=O)CC2(C)C` (stereo unspecified), the EC50 was greater than 501 µM and the IC50 is greater than 501 µM. Take `COc1cc2cc(C(=O)N3CC(CCl)c4ccc(NO)cc43)[nH]c2c(OC)c1OC` (stereo unspecified): the EC50 was greater than 2 µM and the IC50 came to 1.82 µM.

As for `C=C1C(OC(=O)C(O)C(c2ccccc2)N(C)C)C[C@H](OC(C)=O)[C@]2(C)C1C[C@@H]1CC(OC(C)=O)C(C)=C([C@@H](OC(C)=O)C2OC(C)=O)C1(C)C` (stereo partly specified), the result was inactive. For `O=c1ccc2ccccc2c2ccccc12`, the EC50 was greater than 117 µM and the IC50 was 1.66 µM. The like results for `Cc1ccc2ccc3ccc(C)nc3c2n1` were, in that order, greater than 12 µM and 0.24 µM.

Regarding `CC1C(=O)C(C)C(c2ccccc2)N(N=O)C1c1ccccc1` (stereo unspecified), the EC50 is greater than 42.7 µM and the IC50 is greater than 42.7 µM.

`Cc1cccc(N=N/C(=N\NC(=O)c2cc(Cl)ccc2O)c2ccc(N(CCC#N)CCC#N)cc2C)c1`: the EC50 is greater than 200 µM and the IC50 stood at 30.9 µM. Take `COc1cc(CC(C(=O)O)C(=O)O)c(OC)cc1CC(C(=O)O)C(=O)O`: the result was inactive. As for `CC(C)C1NC(=O)[C@H](C)OC(=O)[C@@H](C(C)C)NC(=O)[C@@H](C)OC(=O)C(C(C)C)NC(=O)[C@H](C)OC1=O` (stereo partly specified), the EC50 was greater than 251 µM and the concentration for half-maximal inhibition (IC50) is greater than 251 µM. For the compound `N#C/C1=C(\C#N)CCC2(C#N)C3C=CC(O3)C2(C#N)CC1` (stereo unspecified), the EC50 was greater than 295 µM and the IC50 was 34.7 µM.

On to `CC(=O)OCC1CCC(=C2C(=O)OC(C)(C)OC2=O)N1` (stereo unspecified), for which the EC50 was greater than 200 µM and the IC50 was greater than 200 µM.

Take `CC(C)(C)N=CN1C=Cc2nc3ccccc3cc2C1`: the result was inactive. `CS(=O)(=O)OCCCNCCCOS(C)(=O)=O`: the EC50 was greater than 759 µM and the IC50 worked out at 562 µM. Regarding `O=c1sc2ncccc2n1-c1ccc([N+](=O)[O-])cn1`, the EC50 was greater than 91.2 µM and the IC50 was greater than 91.2 µM. `O=C1c2cccc3cc([N+](=O)[O-])cc(c23)C(=O)N1CCCN(CCO)CCO`: the outcome was inactive. For `CCN1CCC2(CC1)OC(c1ccccc1)C(c1ccccc1)O2` (stereo unspecified), the EC50 was greater than 200 µM and the IC50 amounted to 112 µM. Consider `CC(C)(C)C1COP(=O)(OCc2ccccc2)OC1` (stereo unspecified), for which the EC50 was greater than 631 µM and the IC50 was greater than 631 µM. For the compound `CCSC(=O)C1(C)OC2CCCCC2C1=O` (stereo unspecified), the outcome was inactive. Take `NC1=NC2(COC(c3ccccc3)(c3ccccc3)c3ccccc3)OC(COC(c3ccccc3)(c3ccccc3)c3ccccc3)C(O)C2O1` (stereo unspecified): the EC50 was greater than 200 µM and the concentration for half-maximal inhibition (IC50) came to 12 µM. With `C=C(C)C1Cc2c(cc(OC)c3c(=O)c4ccccc4n(C)c23)O1` (stereo unspecified), the EC50 was greater than 22.4 µM and the IC50 is greater than 22.4 µM. Regarding `COS(=O)(=O)OC1(SC)C=C(c2ccccc2)SS1` (stereo unspecified), the EC50 was greater than 200 µM and the IC50 was found to be 107 µM.

`S=C1CC(c2ccccc2)Sc2ccccc2N1` (stereo unspecified): the EC50 was greater than 200 µM and the IC50 came to 95.5 µM. As for `COc1cc(/C=C/c2ccc(OC)c(OC)c2)cc(OC)c1`, the result was inactive. Still for that read-out and setting: the value for `O=C1c2ccccc2C(=O)C2C1C1C(=O)c3ccccc3C(=O)C21` (stereo unspecified) was “inactive”. Regarding `CC(C)=CCc1cc2c(cc1O)OC[C@H]1c3cc4c(cc3O[C@@H]21)OCO4`, the EC50 was greater than 53.7 µM and the concentration for half-maximal inhibition (IC50) came out at 2.09 µM.
